In patent publication EP2718307B1, “BETA-HAIRPIN PEPTIDOMIMETICS AS CXC4 ANTAGONISTS” (Polyphor AG, priority 2011, dated 2012):
Bridge positions count the residues as written; N and C are the ends. Square brackets hold non-standard residues; d marks the D form. Peptide text beside a SMILES is read from it. Lys(iPr) = CC(C)NCCCC[C@H](N)C(=O)O; Orn(iPr) = CC(C)NCCC[C@H](N)C(=O)O

Key:
[1] = Plasma protein binding (ultrafiltration); format: in vitro ADME, human
Protocol: 495 µL aliquots of human plasma (Basler Blutspendedienst) as well as 495 µL aliquots of PBS were placed in individual deepwells of a polypropylene plate (Greiner) and spiked each with 5 µL of 1 mM solutions of peptides in 90% DMSO. After shaking the plate for 2 min at 600 rpm 150 µL aliquots of the plasma/peptide mixtures were transferred in triplicates to the polypropylene filter plate (10 kDa, Millipore) whereas 150 µL aliquots of the PBS/peptide mixtures were transferred either to the individual wells of the filter plate (filtered controls) or directly into the individual wells of the receiving plate (Greiner) (non-filtered controls). The plate sandwich consisting of filter and receiving plate was incubated for 1 h at 37°C and subsequently centrifuged at 3220 g for 2h at 15 °C. The filtrates in the receiving plate were analysed by LC/MS as follows: Column: Waters, XBridge C18, mobile phases: (A) water + 0.1% formic acid and (B) acetonitrile/water, 95/5 (v/v) + 0.1% formic acid, gradient: 5%-100% (B) in 1.8 min, electrospray ionization, MRM detection (triple quadrupole). The peak areas were determined and triplicate values are averaged. The binding is expressed in percent of the filtered and non-filtered controls by 100-(100x T1h/Tctr). Finally the average of these values is calculated.

[2] = Drug loading calculations via maintenance dose rate (rate of infusion); settings: CLiv-mouse values scaled by 0.127 (GFR human/GFR mouse)
Protocol: The drug load for an implant comprising a peptide of the invention was calculated following the basic principles in pharmacokinetics (see also J. Gabrielsson, D. Weiner, "Pharmacokinetics and Pharmaco-dynamics Data Analysis: Concepts and Applications", 4th edition, Swedish Pharmaceutical Press, Stockholm, Sweden, 2006) whereby the maintainance dose rate (rate of infusion, Rin) can be defined as the rate at which a drug is to be administered to reach a steady state of a certain dose in the plasma. The maintainance dose rate can be expressed using the correlation Rin [g/(h*kg)] = CLiv[L/(h*kg)] x Css,eff [g/L], wherein CLiv is the clearance (i.v. - admin.) and Css,eff the effective concentration of the drug in the plasma at steady state considering an efficacy margin A: Css,eff [g/L] = A x (IC50/fu) x MW [(mol/L)*(g/mol)]. Therefore, the total amount of a drug loaded into an implant providing for a constant effective concentration of that drug in the plasma for a certain period of time in a subject of a certain body weight can be calculated by applying the following correlation: Drugload [g/subject] = Rin [g/(h*kg)] x duration[h] x BW [kg/subject]. [formula]
Further pre-conditions are an efficacy margin of A = 3, a study duration of 672 h (28 days) and a body weight of a human suject of 70 kg. The glomerular filtration rate (GFR) which mainly influences the clearance of the peptides is highly dependent on the species. In general, the GFR of humans is averaged to be 107 mL/(h*kg) compared to the GFR of mouse being 840 mL/(h*kg). Therefore, the CLiv-mouse values indicated in Table 5b were allometrically scaled by 107 mL/(h*kg)/840 mL/(h*kg) = 0.127 before employed in the above described correlations.

[3] = Pharmacokinetic study (PK) after intravenous administration; format: in vivo, male CD-1 mice; settings: 1 mg/kg; for AUC0-∞ / CL / Cmax / Half-life / Vdis: mouse, in vivo
Protocol: For the compounds of Ex. 1, Ex.2, Ex. 3, Ex. 4, Ex. 5 and Ex. 6 pharmacokinetic studies after intravenous (i.v.) administration were performed.
30 grams (± 20%) male CD-1 mice obtained from Charles River Laboratories Deutschland GmbH were used. The vehicle, phosphate buffered saline, was added to give a final concentration of 0.5 mg/mL of the compound. The volume was 2 mL/kg and the compound was injected to give a final intravenous dose of 1 mg/kg. Approximately 300-400 µL of blood was removed under light isoflurane anesthesia by cardiac puncture at predetermined time intervals (5, 15, 30 min and 1, 2, 3, 4, hours) and added to heparinized tubes. Plasma was removed from pelleted cells upon centrifugation and frozen at -80 °C prior to HPLC-MS analysis.
Aliquots of 50 µL each of mouse plasma of untreated aminals ("blank" mouse plasma) were spiked with known amounts of the compounds Ex. 1, Ex.2, Ex. 3, Ex. 4, Ex. 5 and Ex. 6 in order to obtain 10 plasma calibration samples for each compound in the range 1 - 4000 ng/mL. Aliquots of 50 µL each of mouse plasma from treated animals were used as plasma study samples.
All plasma samples were spiked with an appropriate internal standard and extracted with acetonitrile containing 2% formic acid. Supernatants were evaporated to dryness under nitrogen and the remaining solids reconstituted in water/acetonitrile 95/5 (v/v) + 0.2% formic acid.
Extracts were then analyzed by reverse-phase chromatography (Acquity BEH C18, 100 x 2.1 mm, 1.7 µm column, Waters for Ex. 1 and Acquity HSS C18 SB, 100 x 2.1 mm, 1.8 µm column, Waters for Ex. 2, Ex. 3, Ex. 4, Ex. 5 and Ex. 6), using the following conditions: Ex. 1, mobile phases: (A) water/acetonitrile 95/5 (v/v) + 0.1% formic acid, (B) acetonitrile/water 95/5 (v/v) + 0.1% formic acid, gradient: 1% (B) 0-0.1 min, 15% (B) 0.1-2.5 min for Ex. 1 and 1% (B) 0-0.1 min, 40% (B) 0.1-2.5 min for Ex. 2, Ex. 3, Ex. 4, Ex. 5 and Ex. 6. The detection and quantification was performed by mass spectrometry, with electrospray interface in positive mode and selective fragmentation of analytes (4000 Q Trap mass spectrometer, AB Sciex).
PK parameters were calculated by WinNonLin™ software version 5.3 (Pharsight- A Certara™ Company, Moutain View, CA 94041 USA) using a one-compartmental model analysis. PK parameters were determined by least-square fitting of the model to the experimental data.

| SMILES | Plasma protein binding [1] | CLiv, human (allometric scaled) [2] | Calc. Conc. ([3]; mouse plasma, i.v. route, Time 4 h) | AUC0-∞ ([3]; iv) | CL ([3]; iv) | Cmax ([3]; iv) | Half-life ([3]; iv) | Vdis ([3]; iv) | level at 4 h ([3]; male, CD-1, in vivo, iv, mouse plasma, i.v. route, Time 4 h, read-out: Calc. Conc.) |
| --- | --- | --- | --- | --- | --- | --- | --- | --- | --- |
| CC(C)NCCCC[C@@H]1NC(=O)[C@H](CCC(N)=O)NC(=O)[C@H](Cc2ccc(O)cc2)NC(=O)[C@@H]2CSSC[C@H](NC(=O)[C@H](Cc3ccc(O)cc3)NC(=O)[C@H](Cc3c[nH]cn3)NC(=O)[C@H](Cc3ccc(O)cc3)NC(=O)[C@@H]3CCCN3C(=O)[C@H]3CCCN3C1=O)C(=O)N[C@@H](CO)C(=O)N[C@@H](C)C(=O)N1CCC[C@@H]1C(=O)N[C@@H](CCCNC(C)C)C(=O)N[C@@H](CCCNC(=N)N)C(=O)N[C@@H](Cc1ccc(O)cc1)C(=O)N2 [Ex. 1, cyclo(-Tyr^1-His^2-Tyr^3-Cys^4-Ser^5-Ala^6-^DPro^7-Orn(iPr)^8-Arg^9-Tyr^10-Cys^11-Tyr^12-Gln^13-Lys(iPr)^14-^DPro^15-Pro^16-), disulfide bond between Cys^4 and Cys^11] (cyclo(YHYCSA[dP][Orn(iPr)]RYCYQ[Lys(iPr)][dP]P); disulfide 4-11) | 30% | 1.83 mL/min/kg | 7 ng/mL | 1151 ng·h/mL | 14.5 mL/min/kg | 1829 ng/mL | 24 min | 0.547 L/kg |  |
| COc1ccc(C[C@@H]2NC(=O)[C@H](Cc3c[nH]cn3)NC(=O)[C@H](Cc3ccc(O)cc3)NC(=O)[C@@H]3CCCN3C(=O)[C@H]3CCCN3C(=O)[C@H](CCCCNC(C)C)NC(=O)[C@H](CCC(N)=O)NC(=O)[C@H](Cc3ccc(O)cc3)NC(=O)[C@@H]3CSSC[C@H](NC2=O)C(=O)N[C@@H](CO)C(=O)N[C@@H](C)C(=O)N2CCC[C@@H]2C(=O)N[C@@H](CCCNC(C)C)C(=O)N[C@@H](CCCNC(=N)N)C(=O)N[C@@H](Cc2ccc(O)cc2)C(=O)N3)cc1 [Ex. 2, cyclo(-Tyr^1-His^2-Tyr(Me)^3-Cys^4-Ser^5-Ala^6-^DPro^7-Orn(iPr)^8-Arg^9-Tyr^10-Cys^11-Tyr^12-Gln^13-Lys(iPr)^14-^DPro^15-Pro^16-), disulfide bond between Cys^4 and Cys^11] (cyclo(YHY(Me)CSA[dP][Orn(iPr)]RYCYQ[Lys(iPr)][dP]P); disulfide 4-11) | 48% | 1.4 mL/min/kg |  | 1518 ng·h/mL | 11 mL/min/kg | 1575 ng/mL | 42 min | 0.635 L/kg |  |
| COc1ccc(C[C@H]2NC(=O)[C@H](C)NC(=O)[C@H](CO)NC(=O)[C@@H]3CSSC[C@H](NC(=O)[C@H](Cc4ccc(O)cc4)NC(=O)[C@H](CCCNC(=N)N)NC(=O)[C@H](CCCNC(C)C)NC2=O)C(=O)N[C@@H](Cc2ccc(O)cc2)C(=O)N[C@@H](CCC(N)=O)C(=O)N[C@@H](CCCCNC(C)C)C(=O)N2CCC[C@@H]2C(=O)N2CCC[C@H]2C(=O)N[C@@H](Cc2ccc(O)cc2)C(=O)N[C@@H](Cc2c[nH]cn2)C(=O)N[C@@H](C)C(=O)N3)cc1 [Ex. 4, cyclo(-Tyr^1-His^2-Ala^3-Cys^4-Ser^5-Ala^6-^DTyr(Me)^7-Orn(iPr)^8-Arg^9-Tyr^10-Cys^11-Tyr^12-Gln^13-Lys(iPr)^14-^DPro^15-Pro^16-), disulfide bond between Cys^4 and Cys^11] (cyclo(YHACSA[dY](Me)[Orn(iPr)]RYCYQ[Lys(iPr)][dP]P); disulfide 4-11) | 56% | 1.57 mL/min/kg |  | 1345 ng·h/mL | 12.4 mL/min/kg | 1615 ng/mL | 36 min | 0.607 L/kg |  |
| COc1ccc(C[C@@H]2NC(=O)[C@H](Cc3c[nH]cn3)NC(=O)[C@H](Cc3ccc(O)cc3)NC(=O)[C@@H]3CCCN3C(=O)[C@H]3CCCN3C(=O)[C@H](CCCCNC(C)C)NC(=O)[C@H](CCC(N)=O)NC(=O)[C@H](Cc3ccc(O)cc3)NC(=O)[C@@H]3CSSC[C@H](NC2=O)C(=O)N[C@@H](CO)C(=O)N[C@@H](C)C(=O)N[C@H](Cc2ccc(OC)cc2)C(=O)N[C@@H](CCCNC(C)C)C(=O)N[C@@H](CCCNC(=N)N)C(=O)N[C@@H](Cc2ccc(O)cc2)C(=O)N3)cc1 [Ex. 6, cyclo(-Tyr^1-His^2-Tyr(Me)^3-Cys^4-Ser^5-Ala^6-^DTyr(Me)^7-Orn(iPr)^8-Arg^9-Tyr^10-Cys^11-Tyr^12-Gln^13-Lys(iPr)^14-^DPro^15-Pro^16-), disulfide bond between Cys^4 and Cys^11] (cyclo(YHY(Me)CSA[dY](Me)[Orn(iPr)]RYCYQ[Lys(iPr)][dP]P); disulfide 4-11) |  | 5.18 mL/min/kg |  |  |  |  |  |  | 7 ng/mL |
